Data from paper PMC3041981 (ACS medicinal chemistry letters, 2010).
Like-named read-outs stand apart in the source and are kept apart here.

Columns and labels:
[1] = tested on: locomotor activity in mice; assay: Locomotor stimulant activity in mice; assay type: in vivo; conditions: for Time course of locomotor stimulant effect after injection: 30-min period at the start of each of four hours after administration
[2] = molecular target: DAT (Rattus norvegicus, UniProt P23977); assay: DAT binding in rat brain membranes
Sequence of DAT (P23977 whole entry): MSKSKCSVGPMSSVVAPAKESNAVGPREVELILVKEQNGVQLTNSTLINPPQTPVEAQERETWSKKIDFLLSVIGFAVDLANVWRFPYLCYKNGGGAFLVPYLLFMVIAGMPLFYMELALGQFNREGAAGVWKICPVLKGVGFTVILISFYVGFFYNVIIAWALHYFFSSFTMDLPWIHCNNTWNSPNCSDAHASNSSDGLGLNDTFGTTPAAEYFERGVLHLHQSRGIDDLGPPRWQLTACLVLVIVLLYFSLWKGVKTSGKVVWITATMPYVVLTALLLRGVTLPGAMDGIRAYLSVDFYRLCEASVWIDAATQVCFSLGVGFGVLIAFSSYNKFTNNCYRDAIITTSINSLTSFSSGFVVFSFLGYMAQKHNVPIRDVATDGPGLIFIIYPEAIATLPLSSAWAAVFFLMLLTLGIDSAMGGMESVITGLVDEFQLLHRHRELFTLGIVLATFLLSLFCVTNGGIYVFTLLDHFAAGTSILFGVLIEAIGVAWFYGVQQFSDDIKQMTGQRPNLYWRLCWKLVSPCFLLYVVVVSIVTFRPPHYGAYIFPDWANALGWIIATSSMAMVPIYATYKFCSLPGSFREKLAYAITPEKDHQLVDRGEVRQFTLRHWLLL

[3] = molecular target: SERT (Rattus norvegicus, UniProt P31652); assay: SERT binding in rat brain membranes; conditions: SERT versus DAT and NET binding
Sequence of SERT (P31652 whole entry): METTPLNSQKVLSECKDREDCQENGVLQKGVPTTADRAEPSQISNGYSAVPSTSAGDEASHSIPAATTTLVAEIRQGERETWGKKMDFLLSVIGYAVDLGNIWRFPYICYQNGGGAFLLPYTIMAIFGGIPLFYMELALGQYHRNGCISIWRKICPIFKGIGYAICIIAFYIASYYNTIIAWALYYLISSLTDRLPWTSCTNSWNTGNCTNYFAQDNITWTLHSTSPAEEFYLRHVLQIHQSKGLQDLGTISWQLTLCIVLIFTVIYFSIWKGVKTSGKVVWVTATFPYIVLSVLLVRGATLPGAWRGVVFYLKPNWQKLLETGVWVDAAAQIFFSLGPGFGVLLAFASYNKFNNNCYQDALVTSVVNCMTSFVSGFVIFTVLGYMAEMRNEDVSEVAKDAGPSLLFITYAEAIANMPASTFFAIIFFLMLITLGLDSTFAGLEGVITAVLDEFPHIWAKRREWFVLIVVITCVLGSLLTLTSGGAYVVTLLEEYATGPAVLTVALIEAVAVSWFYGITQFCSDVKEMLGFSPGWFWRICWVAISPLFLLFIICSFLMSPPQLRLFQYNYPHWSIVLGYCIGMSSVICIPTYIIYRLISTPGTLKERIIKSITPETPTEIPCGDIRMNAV

Q: Which “Time course of locomotor stimulant effect after injection” value (“Time course” for short) [1] does the source give for `NC(=O)C[S+]([O-])C(c1ccccc1)c1ccccc1` (racemic) [(±)-1, 2-[(diphenylmethyl)sulfinyl]acetamide] here?
A: evident up to four hours after injection

Q: Which “DAT binding affinity, comparison in words” value [2] does the source give for `[O-][S+](CCNCCCc1ccccc1)C(c1ccccc1)c1ccccc1` (stereo not shown) [9a] here?
A: most potent DAT analogue in the series

Q: Which “Transporter selectivity in words” value [3] does the source give for `CN(C)CC[S+]([O-])C(c1ccc(Cl)cc1)c1ccc(Cl)cc1` (stereo not shown) [9d] here?
A: SERT-selective

Q: How did the “Time course” value [1] turn out when `NC(=O)C[S@+]([O-])C(c1ccccc1)c1ccccc1` [(+)-1] was run?
A: evident up to four hours after injection

Q: Which “DAT binding affinity, comparison in words” value ([2]; rat brain membranes, within the series) does the source give for `NC(=O)C[S@@+]([O-])C(c1ccccc1)c1ccccc1` [(−)-1] here?
A: slightly higher affinity than the S

Q: What about the “Time course” value [1] of the same compound?
A: evident up to four hours after injection

Q: With `COC(=O)[C@H]1[C@@H](OC(=O)c2ccccc2)C[C@@H]2CC[C@H]1N2C` [cocaine] as the compound, how does the “Effect on locomotor activity (horizontal activity counts)” value ([1]; after injection, 6 mice per point, maximal effect compared with cocaine) read?
A: greatest among the drugs
